According to patent US10759751B2, “Substituted spirocyclohexanes as muscarinic M1 receptor and/or M4 receptor agonists” (Heptares Therapeutics Limited, priority 2016, dated 2020):

What was measured:
Assay type in all cases: cell-based
[1] = biological target: T1, human muscarinic M4 receptor (Homo sapiens, UniProt P08173); test: Alphascreen Surefire phospho-ERK1/2 functional assay, M4; settings: for EC50 / M4 % Emax cf. ACh: CHO cells stably expressing human M4; for EC50: phospho-ERK1/2, read-out: pEC50 M4 (converted); for Emax: CHO, read-out: M4 % Emax cf. ACh, CHO cells stably expressing human M4; for Emax / M4 % Emax cf. ACh: Emax relative to ACh
T1 construct: expressed in transfected cells
T1 sequence (P08173 1-479): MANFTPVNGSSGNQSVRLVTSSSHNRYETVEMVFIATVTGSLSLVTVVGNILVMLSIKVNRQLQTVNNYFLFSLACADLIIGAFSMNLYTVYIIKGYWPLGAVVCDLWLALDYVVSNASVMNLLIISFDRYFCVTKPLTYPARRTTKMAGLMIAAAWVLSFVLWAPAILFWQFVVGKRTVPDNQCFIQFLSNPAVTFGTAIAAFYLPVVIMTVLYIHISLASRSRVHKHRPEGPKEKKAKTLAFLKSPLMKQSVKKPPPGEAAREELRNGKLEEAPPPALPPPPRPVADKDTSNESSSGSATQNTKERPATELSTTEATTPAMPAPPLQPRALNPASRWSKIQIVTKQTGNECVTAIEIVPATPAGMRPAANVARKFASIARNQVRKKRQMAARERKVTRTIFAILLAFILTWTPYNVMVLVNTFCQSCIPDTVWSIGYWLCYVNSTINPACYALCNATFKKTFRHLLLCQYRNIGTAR
In short: (§1)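 Read-out: AlphaScreen SureFire signal for phospho-ERK1/2 in lysates of stably transfected CHO cells, read after 2 h in the dark. Cells were serum-starved overnight and given agonist for 5 min at 37 °C. Values are pEC50 and Emax.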

[2] = biological target: T2, human muscarinic M2 receptor (Homo sapiens, UniProt P08172); test: Alphascreen Surefire phospho-ERK1/2 functional assay, M2; settings: for EC50: CHO cells stably expressing human M2, phospho-ERK1/2, read-out: pEC50 M2 (converted); for Emax: CHO, read-out: M2 % Emax cf. ACh
T2 sequence (P08172 1-466): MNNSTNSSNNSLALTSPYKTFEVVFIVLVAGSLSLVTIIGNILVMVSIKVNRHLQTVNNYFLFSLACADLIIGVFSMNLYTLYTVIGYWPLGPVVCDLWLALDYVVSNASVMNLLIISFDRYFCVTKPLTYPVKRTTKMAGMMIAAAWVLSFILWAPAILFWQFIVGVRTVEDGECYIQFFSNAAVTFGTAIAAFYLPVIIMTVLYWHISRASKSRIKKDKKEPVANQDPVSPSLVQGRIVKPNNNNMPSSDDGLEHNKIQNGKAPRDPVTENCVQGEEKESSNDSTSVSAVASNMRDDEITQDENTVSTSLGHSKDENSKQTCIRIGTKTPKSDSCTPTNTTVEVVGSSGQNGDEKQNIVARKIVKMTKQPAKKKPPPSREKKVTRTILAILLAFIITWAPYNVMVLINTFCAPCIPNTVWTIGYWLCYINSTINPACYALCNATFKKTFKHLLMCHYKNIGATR
Procedure: (§2) Functional assays were performed using the Alphascreen Surefire phospho-ERK1/2 assay (Crouch & Osmond, Comb. Chem. High Throughput Screen, 2008). ERK1/2 phosphorylation is a downstream consequence of both Gq/11 and Gi/o protein coupled receptor activation, making it highly suitable for the assessment of M1, M3 (Gq/11 coupled) and M2, M4 receptors (Gi/o coupled), rather than using different assay formats for different receptor subtypes. CHO cells stably expressing the human muscarinic M1, M2, M3 or M4 receptor were plated (25K/well) onto 96-well tissue culture plates in MEM-alpha+10% dialysed FBS. Once adhered, cells were serum-starved overnight. Agonist stimulation was performed by the addition of 5 μL agonist to the cells for 5 min (37° C.). Media was removed and 50 μL of lysis buffer added. After 15 min, a 4 μL sample was transferred to 384-well plate and 7 μL of detection mixture added. Plates were incubated for 2 h with gentle agitation in the dark and then read on a PHERAstar plate reader.
(§3) pEC50 and Emax figures were calculated from the resulting data for each receptor subtype.

[3] = biological target: T3, human muscarinic M1 receptor (Homo sapiens, UniProt P11229); test: Alphascreen Surefire phospho-ERK1/2 functional assay, M1; settings: for EC50 / M1 % Emax cf. ACh: CHO cells stably expressing human M1; for EC50: phospho-ERK1/2, read-out: pEC50 M1 (converted); for Emax: CHO, read-out: M1 % Emax cf. ACh, CHO cells stably expressing human M1; for Emax / M1 % Emax cf. ACh: Emax relative to ACh
T3 sequence (P11229 1-460): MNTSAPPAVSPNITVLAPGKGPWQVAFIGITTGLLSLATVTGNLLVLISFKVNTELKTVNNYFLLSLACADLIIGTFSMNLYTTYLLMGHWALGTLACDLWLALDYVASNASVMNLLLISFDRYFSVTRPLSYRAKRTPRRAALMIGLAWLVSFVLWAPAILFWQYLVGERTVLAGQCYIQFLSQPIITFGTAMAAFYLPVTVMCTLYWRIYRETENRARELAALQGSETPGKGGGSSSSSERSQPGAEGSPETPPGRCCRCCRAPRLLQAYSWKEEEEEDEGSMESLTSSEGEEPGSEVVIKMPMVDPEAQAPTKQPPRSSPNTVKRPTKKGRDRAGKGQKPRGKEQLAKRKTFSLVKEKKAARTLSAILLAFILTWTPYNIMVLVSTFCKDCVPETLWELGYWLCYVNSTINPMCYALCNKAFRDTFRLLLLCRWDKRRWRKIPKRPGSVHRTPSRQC
In short: as §1

[4] = biological target: T4, human muscarinic M3 receptor (Homo sapiens, UniProt P20309); test: Alphascreen Surefire phospho-ERK1/2 functional assay, M3; settings: for EC50: CHO cells stably expressing human M3, phospho-ERK1/2, read-out: pEC50 M3 (converted); for Emax: CHO, read-out: M3 % Emax cf. ACh
T4 construct: expressed in transfected cells
T4 sequence (P20309 whole entry): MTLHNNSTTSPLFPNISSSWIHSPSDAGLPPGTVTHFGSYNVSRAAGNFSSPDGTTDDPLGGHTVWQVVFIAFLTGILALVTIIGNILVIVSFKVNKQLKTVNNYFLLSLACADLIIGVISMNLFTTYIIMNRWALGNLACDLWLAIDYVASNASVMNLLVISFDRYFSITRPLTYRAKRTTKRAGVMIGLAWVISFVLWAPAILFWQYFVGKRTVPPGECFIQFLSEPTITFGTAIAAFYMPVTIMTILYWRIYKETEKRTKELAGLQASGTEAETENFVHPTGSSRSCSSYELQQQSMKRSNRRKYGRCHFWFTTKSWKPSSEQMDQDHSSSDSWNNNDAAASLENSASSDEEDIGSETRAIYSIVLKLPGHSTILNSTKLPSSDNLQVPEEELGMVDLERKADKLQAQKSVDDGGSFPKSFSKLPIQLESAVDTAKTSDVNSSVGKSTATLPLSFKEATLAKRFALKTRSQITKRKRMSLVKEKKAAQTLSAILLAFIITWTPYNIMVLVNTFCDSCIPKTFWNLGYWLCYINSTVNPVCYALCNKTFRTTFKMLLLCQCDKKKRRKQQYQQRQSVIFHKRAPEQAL
Procedure: as §2, §3

| EC50 [1] [µM] | Emax [1] [%] | EC50 [2] [µM] | Emax [2] [%] | EC50 [3] [µM] | Emax [3] [%] | EC50 [4] [µM] | Emax [4] [%] | M4 % Emax cf. ACh [1] [%] | M1 % Emax cf. ACh [3] [%] | Compound |
| --- | --- | --- | --- | --- | --- | --- | --- | --- | --- | --- |
| 0.832 | 46 | > 20 | 12 | 0.295 | 86 | > 20 | 40 |  |  | CCOC(=O)N1CCCN(C2CCC(C#N)(c3ccccc3Cl)CC2)CC1 (mixture of isomers) [3-4 mixture of isomers] |
| > 20 | 10 | > 20 | 3 | 0.0891 | 107 | > 20 | 34 |  |  | CCOC(=O)N1CCCN(C2CCC3(CC2)C(=O)Nc2ccc(OC)cc23)CC1 (single isomer, unassigned) [4-12 isomer 1] |
| > 20 | 7 | > 20 | 3 | 0.0355 | 98 | > 20 | 8 |  |  | CCOC(=O)N[C@H]1CCN(C2CCC(C#N)(c3ccc(F)cc3)CC2)C1 (single isomer, unassigned) [1-4 Isomer 2] |
| 0.0977 |  | > 20 | 17 | 0.204 |  | > 20 | 9 | 95 | 97 | CCOC(=O)N1CCCN(C2CCC3(CC2)C(=O)Nc2cccc(C)c23)CC1 (single isomer, unassigned) [4-8 isomer 2] |
| 0.309 | 47 | > 20 | 5 | 0.0832 | 101 | > 20 | 36 |  |  | CCOC(=O)N1CCCN(C2CCC(C#N)(c3cccc(Cl)c3)CC2)CC1 (mixture of isomers) [3-5 mixture of isomers] |
| 0.0407 | 50 | > 20 | 22 | 0.0151 | 74 | > 20 | 7 |  |  | Cc1ccc2c(c1)C1(CCC(N3CCC4(CC(c5nc(C)no5)C4)C3)CC1)C(=O)N2 (single isomer, unassigned) [26-1 Isomer 2] |
| 0.126 | 58 | > 20 | 61 | 0.219 | 78 | > 20 | 30 |  |  | N#CC1(c2ccccc2)CCC(N2CC3(CC(c4nc(C(F)(F)F)no4)C3)C2)CC1 (single isomer, unassigned) [20-1 Isomer 2] |
| 1.7 | 48 | > 20 | 35 | 0.389 | 101 | > 20 | 34 |  |  | CCOC(=O)N1CCCN(C2CCC(C#N)(c3ccccc3C)CC2)CC1 (mixture of isomers) [3-7 mixture of isomers] |
| 0.389 | 99 | > 20 | 43 | 0.0724 | 97 | > 20 | 15 |  |  | CCOC(=O)N1CCCN(C2CCC(C#N)(c3ccccn3)CC2)CC1 (mixture of isomers) [3-11 mixture of isomers] |
| 0.0741 | 76 | > 20 | 7 | 0.0251 | 96 | > 20 | 46 |  |  | CCOC(=O)N1CCCN(C2CCC(C#N)(c3cccc(F)c3)CC2)CC1 (mixture of isomers) [3-2 mixture of isomers] |
| 1.07 | 48 | > 20 | 5 | 0.155 | 116 | > 20 | 3 |  |  | CCOC(=O)N1CCCN(C2CCC(C#N)(c3ccncc3)CC2)CC1 (mixture of isomers) [3-12 mixture of isomers] |
| > 20 | 20 | > 20 | 3 | 0.794 | 57 | > 20 | 2 |  |  | CCCC(=O)N1CCCN(C2CCC3(CC2)C(=O)Nc2ccccc23)CC1 (single isomer, unassigned) [4-3 isomer 2] |
| 0.398 | 47 | > 20 | 11 | 0.229 | 83 | > 20 | 11 |  |  | Cc1noc([C@@H]2CCCN(C3CCC4(CC3)C(=O)Nc3ccccc34)C2)n1 (single isomer, unassigned) [22-1 Isomer 1] |
| > 20 |  | > 20 | 5 | 0.0525 |  | > 20 | 2 | 16 | 89 | CCOC(=O)N[C@H]1CCN(C2CCC3(CC2)C(=O)Nc2cc(F)ccc23)C1 (single isomer, unassigned) [2-7 isomer 2] |
| 0.00479 | 82 | > 20 | 18 | 0.0138 | 109 | > 20 | 1 |  |  | CCOC(=O)N1CCC2(CCN(C3CCC4(CC3)C(=O)Nc3ccccc34)CC2)C1 (single isomer, unassigned) [12-1 isomer 1] |
| 0.537 | 42 | > 20 | 12 | 0.0708 | 55 | > 20 | 21 |  |  | COc1ccc2c(c1)C1(CCC(N3CCC[C@@H](c4nc(C)no4)C3)CC1)C(=O)N2 (single isomer, unassigned) [22-2 Isomer 1] |
| > 20 | 39 | > 20 | 27 | 0.00794 | 64 | > 20 | 4 |  |  | CCOC(=O)N[C@H]1CCN(C2CCC3(CC2)C(=O)Nc2ccc(OC)cc23)C1 (single isomer, unassigned) [2-10 isomer 1] |
| 0.251 | 61 | > 20 | 9 | 0.0977 | 111 | > 20 | 9 |  |  | CCOC(=O)N1CC2CN(C3CCC(C#N)(c4ccccc4)CC3)CCC21 (single isomer, unassigned) [17-1 Isomer 2] |
| > 20 | 53 | > 20 | 3 | 0.724 | 90 | > 20 | 2 |  |  | CCOC(=O)N1CCCN(C2CCC(C#N)(c3ccc(C(F)(F)F)cn3)CC2)CC1 (mixture of isomers) [3-21 mixture of isomers] |
